Columns and labels:
IAV A/PR/8/34 [1] = type: cell-based, IAV A/PR/8/34 (H1N1)
[2] = tested on: A549 cells infected with IAV A/PR/8/34; type: cell-based, human
IAV A/PR/8/34 [3] = tested on: IAV A/PR/8/34; set-up: species or system C57BL/6 mice; settings: mouse, in vivo
IAV A/PR/8/34 [4] = tested on: IAV A/PR/8/34; set-up: species or system C57BL/6 mice; settings: mouse, in vivo; remark: listed apart in the source
[5] = mouse, in vivo

| Compound | virus production in IAV-infected A549 cells (IAV A/PR/8/34 [1]) | IL-6 release [2] | IL-8 release [2] | RANTES release [2] | IAV-induced death in mice (IAV A/PR/8/34 [3]) | infectious virus loads in lungs (IAV A/PR/8/34 [4]) | side effect in uninfected mice (survival, weight) [5] | protection from IAV induced death, different concentrations (IAV A/PR/8/34 [3]) | protection from IAV-induced death at different pfu/mice (IAV A/PR/8/34 [3]) | infectious virus load in lungs (IAV A/PR/8/34 [4]) |
| --- | --- | --- | --- | --- | --- | --- | --- | --- | --- | --- |
| H-Thr-Phe-Leu-Leu-Arg-NH2 [TFLLR-NH2] | produced more viruses | significantly increased | significantly increased | significantly increased | increased IAV-induced death | significantly increased infectious virus loads | not sensitive | – | – | – |
| CC(C)c1ccc(Cn2ccc3c4c(N)nc(NC5CC5)nc4ccc32)cc1 [SCH79797] | – | – | – | – | – | – | – | protected mice from IAV induced death in a dose-dependent manner | protected mice from IAV-induced death | significantly decreased infectious virus load |

From patent US8802623B2 (priority 2009, dated 2014)
